Some test systems named below: HCT-15; Malme-3M; BT-549; SN12C; OVCAR-3; CCRF-CEM; SNB-75; OVCAR-4; HL-60; MOLT-4; SF-539; XF498; MDA-N; NCI-H522; EKVX; SF-268; MDA-MB-435; HT-29; U-251; M14.
Common to all, as to assay: NCI tumour cell line growth inhibition, 48 h

Each structure is given as a SMILES string.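 Dose response: 5 concentrations. Exposure: 48 h. Format: 96-well plates. Endpoint: linear interpolation; highest concentration if not reached. GI50 marks 50% less growth.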 The source made the active and inactive calls. Cut-off read from the data, not from the text of the source: active = GI50 up to about 1.1 µM and inactive = higher.

As to `Nc1ccc2c(SCC(=O)Nc3ccccc3-c3ccccc3NC(=O)CSc3c4ccccc4nc4cc(N)ccc34)c3ccccc3nc2c1`, the GI50 is 31.1 µM in the experiment with HCT-15; 22.9 µM (inactive) with Malme-3M; 42 µM (inactive) in the experiment with BT-549; 28.5 µM (inactive) in the experiment on SN12C; 22.2 µM (inactive) with OVCAR-3; 2.79 µM (inactive) in the experiment with CCRF-CEM. The GI50 in the experiment with SNB-75 is 38.5 µM (inactive); in the experiment with OVCAR-4, 29 µM (inactive); in the experiment with HL-60, 3.21 µM (inactive); in the experiment on MOLT-4, 3.35 µM (inactive); in the experiment on SF-539, 32.1 µM (inactive); with XF498 it was 19.9 µM (inactive). The GI50 in the experiment with MDA-N is 44.5 µM (inactive); in the experiment on NCI-H522, 6.52 µM (inactive); in the experiment on EKVX, 39.6 µM (inactive); in the experiment with SF-268, 37.1 µM (inactive); with MDA-MB-435, 22.1 µM (inactive); with HT-29, 29.6 µM (inactive). Moreover, the values for the GI50 with U-251 and with M14 were 22 µM (inactive) and 24.4 µM (inactive), respectively.

`C1=CC2SSSC2C1` (centres undefined): the GI50 in the experiment with HCT-15 was greater than 100 µM; with Malme-3M, > 100 µM (inactive); with SN12C, > 100 µM (inactive); with OVCAR-3, > 100 µM (inactive); with CCRF-CEM it was > 100 µM (inactive); in the experiment with SNB-75 it was > 100 µM (inactive). For the same molecule, the GI50 in the experiment on OVCAR-4, in the experiment with HL-60, with MOLT-4, in the experiment on SF-539, in the experiment on XF498 and in the experiment on NCI-H522 was > 100 µM (inactive) each time. The GI50 with EKVX, in the experiment with SF-268, in the experiment with HT-29, in the experiment on U-251 and in the experiment with M14 was > 100 µM (inactive) each time.

Regarding `COc1ccc(CCN(C)C2CCC(C#N)(c3ccc(OC)c(OC)c3)CC2)cc1OC` (centres undefined), the GI50 in the experiment with HCT-15 was greater than 100 µM; with Malme-3M, > 100 µM (inactive); in the experiment with SN12C, > 100 µM (inactive); with OVCAR-3, > 100 µM (inactive); with CCRF-CEM, > 100 µM (inactive); in the experiment on SNB-75, > 100 µM (inactive). Besides, the GI50 in the experiment with OVCAR-4 was > 100 µM (inactive); in the experiment with HL-60, 71 µM (inactive); in the experiment with MOLT-4 it was > 100 µM (inactive); with SF-539, > 100 µM (inactive); with XF498 it was > 100 µM (inactive); in the experiment with NCI-H522, > 10 µM (inactive). Further, the GI50 in the experiment with EKVX was > 100 µM (inactive); in the experiment with SF-268, > 100 µM (inactive); in the experiment on HT-29, 34.4 µM (inactive); with U-251, > 100 µM (inactive); with M14, > 100 µM (inactive).

As for `CCCCCCCCCCCCCCCc1ccc(OCC(O)CO)cc1` (centres undefined), the GI50 with HCT-15 is 81.8 µM; with Malme-3M, 22.4 µM (inactive); in the experiment with SN12C, 18 µM (inactive); with OVCAR-3 it was 23 µM (inactive); with CCRF-CEM, > 100 µM (inactive); with SNB-75, 27 µM (inactive). In addition, the GI50 in the experiment on OVCAR-4 was 16.3 µM (inactive); with HL-60, 27.7 µM (inactive); in the experiment with MOLT-4, > 100 µM (inactive); with SF-539, 49.7 µM (inactive); with XF498, 19.4 µM (inactive); with NCI-H522 it was 18.2 µM (inactive). Besides, the GI50 was 31.9 µM (inactive) in the experiment with EKVX; 27.9 µM (inactive) with SF-268; 21.7 µM (inactive) in the experiment on HT-29; 23.7 µM (inactive) with U-251; 17.9 µM (inactive) in the experiment with M14.

Regarding `O=C(CC1C(=O)Nc2ccccc2[S+]1[O-])Nc1cccc(Cl)c1` (centres undefined), the GI50 with HCT-15 was 27.1 µM; in the experiment with Malme-3M, > 55.6 µM (inactive); in the experiment on BT-549, 26.3 µM (inactive); in the experiment with SN12C, > 51.9 µM (inactive); in the experiment on OVCAR-3, 32.7 µM (inactive); in the experiment with CCRF-CEM, > 35.4 µM (inactive). For the same molecule, the GI50 is 16.4 µM (inactive) in the experiment on SNB-75; > 53.8 µM (inactive) with OVCAR-4; > 33.5 µM (inactive) in the experiment with HL-60; > 37.7 µM (inactive) in the experiment with MOLT-4; 18.6 µM (inactive) with SF-539; > 100 µM (inactive) in the experiment with XF498. Further, the GI50 is 18.6 µM (inactive) in the experiment on MDA-N; > 47.4 µM (inactive) in the experiment with EKVX; 55.1 µM (inactive) in the experiment on SF-268; 27.9 µM (inactive) with MDA-MB-435; > 35.6 µM (inactive) in the experiment on HT-29; 33.7 µM (inactive) with U-251. For the same molecule, the GI50 in the experiment on M14 is > 42.4 µM (inactive).

As to `CCOc1ccc(NCC2CC/C(=C\c3ccc(Cl)cc3)C2=O)cc1` (centres undefined), the GI50 in the experiment with HCT-15 is 7.73 µM; in the experiment on Malme-3M, 34.5 µM (inactive); with SN12C it was > 42.8 µM (inactive); in the experiment with OVCAR-3, > 36.9 µM (inactive); in the experiment with CCRF-CEM, 9.29 µM (inactive); with SNB-75 it was > 44.5 µM (inactive). Moreover, the GI50 in the experiment with OVCAR-4 was 39.7 µM (inactive); with HL-60, 1.74 µM (inactive); in the experiment with MOLT-4, 16.8 µM (inactive); in the experiment on SF-539, > 41.7 µM (inactive); in the experiment with XF498, 19.3 µM (inactive); in the experiment on NCI-H522 it was 6.25 µM (inactive). In addition, the GI50 in the experiment with EKVX is 38.6 µM (inactive); in the experiment with SF-268, > 55.2 µM (inactive); in the experiment on HT-29, > 42.1 µM (inactive); in the experiment on U-251, 25.8 µM (inactive); in the experiment on M14 it was 20.4 µM (inactive).

Consider `O=C1CCC2(c3ccc(F)cc3)Nc3ccccc3N12` (centres undefined), for which the GI50 in the experiment on HCT-15 is greater than 100 µM; with Malme-3M, > 100 µM (inactive); in the experiment with SN12C it was > 100 µM (inactive); in the experiment with OVCAR-3, > 100 µM (inactive); with CCRF-CEM, > 100 µM (inactive); in the experiment on SNB-75 it was 63.7 µM (inactive). Besides, the GI50 with OVCAR-4, in the experiment with HL-60, in the experiment on MOLT-4, in the experiment with SF-539, with XF498 and with NCI-H522 was > 100 µM (inactive) throughout. Besides, the GI50 in the experiment on EKVX, in the experiment with SF-268, in the experiment on HT-29, in the experiment with U-251 and in the experiment on M14 was > 100 µM (inactive) each time.

The values are drawn from ChEMBL document CHEMBL1201862, “PubChem BioAssay data set” (2004).
